{
  "source": "ChEMBL document CHEMBL1201862",
  "about": "“PubChem BioAssay data set” (2004)",
  "key": {"[1]": {"biological_target": "T1, Nucleotide-binding oligomerization domain-containing protein 2 (Homo sapiens, UniProt Q9HC29)", "T1 sequence (Q9HC29 whole entry, the tested form may be a part)": "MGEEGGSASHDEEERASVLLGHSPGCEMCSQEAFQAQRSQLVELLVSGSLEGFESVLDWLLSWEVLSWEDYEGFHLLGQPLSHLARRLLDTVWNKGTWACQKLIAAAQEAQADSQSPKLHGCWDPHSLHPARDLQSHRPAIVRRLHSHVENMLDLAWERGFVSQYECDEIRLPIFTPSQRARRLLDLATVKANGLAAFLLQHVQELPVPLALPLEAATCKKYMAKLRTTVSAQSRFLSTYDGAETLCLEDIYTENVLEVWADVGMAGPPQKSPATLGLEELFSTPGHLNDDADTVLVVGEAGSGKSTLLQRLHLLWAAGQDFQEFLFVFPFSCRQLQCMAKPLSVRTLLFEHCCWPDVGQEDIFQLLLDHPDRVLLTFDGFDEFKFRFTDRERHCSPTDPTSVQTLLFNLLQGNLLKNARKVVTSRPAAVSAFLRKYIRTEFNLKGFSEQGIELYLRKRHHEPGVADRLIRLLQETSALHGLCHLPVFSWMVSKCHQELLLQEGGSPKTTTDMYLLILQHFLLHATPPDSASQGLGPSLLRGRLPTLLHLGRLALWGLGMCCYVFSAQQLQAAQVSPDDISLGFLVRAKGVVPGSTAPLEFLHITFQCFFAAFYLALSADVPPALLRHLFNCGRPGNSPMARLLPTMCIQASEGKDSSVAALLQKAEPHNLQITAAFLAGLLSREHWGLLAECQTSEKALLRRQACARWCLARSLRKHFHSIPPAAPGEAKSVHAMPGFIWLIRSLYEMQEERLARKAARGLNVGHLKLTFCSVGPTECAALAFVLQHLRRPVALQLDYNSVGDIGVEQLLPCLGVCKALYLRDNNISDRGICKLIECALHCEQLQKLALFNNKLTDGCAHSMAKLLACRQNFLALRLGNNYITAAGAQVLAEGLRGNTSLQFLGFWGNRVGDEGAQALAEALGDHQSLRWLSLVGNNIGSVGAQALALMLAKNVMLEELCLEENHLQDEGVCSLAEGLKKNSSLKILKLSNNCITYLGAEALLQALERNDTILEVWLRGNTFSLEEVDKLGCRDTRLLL", "experiment": "PubChem AID 2334", "assay_type": "functional"}, "[2]": {"biological_target": "T1, Nucleotide-binding oligomerization domain-containing protein 2", "experiment": "NOD2 signaling inhibitors, cell-based, luminescence, uHTS, HEK293 (AID 1566)", "assay_type": "functional"}, "HEK293 [3]": {"test_system": "HEK293", "experiment": "cells", "assay_type": "functional, cell-based", "conditions": "Homo sapiens"}, "[4]": {"biological_target": "T2, Nucleotide-binding oligomerization domain-containing protein 1 (Homo sapiens, UniProt Q9Y239)", "T2 sequence (Q9Y239 whole entry)": "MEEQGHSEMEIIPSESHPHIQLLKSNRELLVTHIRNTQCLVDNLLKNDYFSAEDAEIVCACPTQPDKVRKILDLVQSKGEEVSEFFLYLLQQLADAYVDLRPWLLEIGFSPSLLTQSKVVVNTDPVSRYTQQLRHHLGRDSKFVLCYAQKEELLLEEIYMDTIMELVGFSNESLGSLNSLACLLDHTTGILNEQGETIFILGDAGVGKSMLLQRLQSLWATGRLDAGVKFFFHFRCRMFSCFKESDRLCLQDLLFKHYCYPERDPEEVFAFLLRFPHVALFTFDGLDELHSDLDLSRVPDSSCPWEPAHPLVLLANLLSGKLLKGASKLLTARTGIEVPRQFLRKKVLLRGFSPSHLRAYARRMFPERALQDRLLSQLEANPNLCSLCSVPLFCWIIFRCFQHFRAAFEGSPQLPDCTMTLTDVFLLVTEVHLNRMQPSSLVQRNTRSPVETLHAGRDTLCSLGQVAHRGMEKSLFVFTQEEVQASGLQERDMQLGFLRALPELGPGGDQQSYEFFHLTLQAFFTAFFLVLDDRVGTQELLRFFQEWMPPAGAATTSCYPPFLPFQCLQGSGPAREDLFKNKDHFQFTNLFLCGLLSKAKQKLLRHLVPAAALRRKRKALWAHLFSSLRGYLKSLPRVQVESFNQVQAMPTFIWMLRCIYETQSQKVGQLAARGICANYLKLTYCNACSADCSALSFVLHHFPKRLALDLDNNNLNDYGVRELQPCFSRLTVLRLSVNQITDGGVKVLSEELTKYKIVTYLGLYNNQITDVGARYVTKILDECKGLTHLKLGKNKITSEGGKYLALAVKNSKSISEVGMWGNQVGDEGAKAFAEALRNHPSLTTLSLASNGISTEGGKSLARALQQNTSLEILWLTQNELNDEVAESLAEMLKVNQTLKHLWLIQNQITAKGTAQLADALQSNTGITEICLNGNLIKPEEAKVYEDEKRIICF", "experiment": "NOD1 signaling inhibitors, SAR follow-up, revised (AID 2333)", "assay_type": "functional"}, "HEK293 [5]": {"test_system": "HEK293", "experiment": "cells", "assay_type": "functional, cell-based", "conditions": "Homo sapiens", "remark": "listed apart in the source"}, "HEK293 [6]": {"test_system": "HEK293", "experiment": "cells", "assay_type": "functional, cell-based", "conditions": "Homo sapiens", "remark": "listed apart in the source"}, "HEK293 [7]": {"test_system": "HEK293", "experiment": "NOD2 signaling inhibitors in MDP-stimulated cells, cell-based, uHTS, luminescence (AID 2001)", "assay_type": "functional", "conditions": "Homo sapiens"}, "HEK293 [8]": {"test_system": "HEK293", "experiment": "cells", "conditions": "Homo sapiens"}, "[9]": {"biological_target": "T3, Small ubiquitin-related modifier 1 (Homo sapiens, UniProt P63165)", "T3 sequence (P63165 whole entry)": "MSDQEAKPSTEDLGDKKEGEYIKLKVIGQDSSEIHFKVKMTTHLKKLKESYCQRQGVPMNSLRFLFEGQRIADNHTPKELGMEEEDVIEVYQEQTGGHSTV", "experiment": "inhibitors of SUMO1 peptide binding, dose response, biochemical, fluorescence polarization, uHTS hits (AID 624382)", "assay_type": "functional", "conditions": "read-out: IC50_Mean"}, "[10]": {"biological_target": "T3, Small ubiquitin-related modifier 1", "experiment": "inhibitors of SUMO1 partner interactions, dose response, biochemical, FRET (AID 624383)", "assay_type": "functional", "conditions": "read-out: IC50_Mean"}, "Tumor necrosis factor": {"biological_target": "Tumor necrosis factor (Homo sapiens, UniProt P01375)", "sequence (P01375 whole entry)": "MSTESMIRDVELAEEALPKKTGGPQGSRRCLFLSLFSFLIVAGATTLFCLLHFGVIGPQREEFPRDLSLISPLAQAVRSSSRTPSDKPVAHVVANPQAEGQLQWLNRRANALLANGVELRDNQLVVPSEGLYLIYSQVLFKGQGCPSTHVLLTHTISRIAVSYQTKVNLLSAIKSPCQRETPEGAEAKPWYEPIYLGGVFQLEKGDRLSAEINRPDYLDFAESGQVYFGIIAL", "experiment": "TNFa-triggered NF-kB activation inhibitors, SAR follow-up, cell-based, revised (AID 2337)", "assay_type": "functional"}, "HEK293 [11]": {"test_system": "HEK293", "experiment": "NOD1 signaling inhibitors, primary screen, cell-based, luminescence, uHTS (AID 1578)", "assay_type": "functional", "conditions": "Homo sapiens"}, "X-box-binding protein 1": {"biological_target": "X-box-binding protein 1 (Homo sapiens, UniProt P17861)", "sequence (P17861 whole entry)": "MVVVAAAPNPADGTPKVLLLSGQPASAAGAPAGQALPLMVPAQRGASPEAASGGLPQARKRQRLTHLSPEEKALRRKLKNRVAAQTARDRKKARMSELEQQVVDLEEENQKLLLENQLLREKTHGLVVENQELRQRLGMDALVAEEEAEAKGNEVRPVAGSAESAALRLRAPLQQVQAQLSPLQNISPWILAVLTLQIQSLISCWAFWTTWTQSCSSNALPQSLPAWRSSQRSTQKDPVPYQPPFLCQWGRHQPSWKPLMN", "assay_type": "functional, Cricetulus griseus"}, "[12]": {"experiment": "nonselective inhibitors of cellular cAMP signaling, dose response, counter-screen for MC4R biased antagonist project, cell-based, TR-FRET cAMP detection (AID 602305);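 further: U2OS cells stimulated with forskolin near its EC80 as the cAMP inducer; potency is for inhibition of forskolin-stimulated cAMP signaling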", "assay_type": "functional"}, "[13]": {"biological_target": "T4, Microphthalmia-associated transcription factor (Homo sapiens, UniProt O75030)", "T4 sequence (O75030 whole entry)": "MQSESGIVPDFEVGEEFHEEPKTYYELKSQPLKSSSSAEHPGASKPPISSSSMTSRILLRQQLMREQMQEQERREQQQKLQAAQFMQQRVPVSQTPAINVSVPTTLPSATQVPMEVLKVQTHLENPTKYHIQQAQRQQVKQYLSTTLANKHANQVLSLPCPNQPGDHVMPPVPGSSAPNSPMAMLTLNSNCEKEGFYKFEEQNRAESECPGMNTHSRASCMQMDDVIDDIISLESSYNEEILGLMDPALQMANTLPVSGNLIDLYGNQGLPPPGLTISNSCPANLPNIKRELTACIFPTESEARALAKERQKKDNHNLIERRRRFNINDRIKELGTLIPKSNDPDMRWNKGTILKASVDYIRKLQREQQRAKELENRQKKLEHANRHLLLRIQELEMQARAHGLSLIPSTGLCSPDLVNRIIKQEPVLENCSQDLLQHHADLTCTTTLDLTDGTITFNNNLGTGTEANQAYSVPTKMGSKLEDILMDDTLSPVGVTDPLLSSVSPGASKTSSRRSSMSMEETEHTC", "experiment": "TRPM1 promoter luciferase signal decrease, dose response, MITF inhibitor project, cell-based, SK-MEL-5, cherry-picked, set 3 (AID 493073)", "assay_type": "functional"}, "[14]": {"biological_target": "T5, Rac GTPase-activating protein 1 (Homo sapiens, UniProt Q9H0H5)", "T5 sequence (Q9H0H5 whole entry)": "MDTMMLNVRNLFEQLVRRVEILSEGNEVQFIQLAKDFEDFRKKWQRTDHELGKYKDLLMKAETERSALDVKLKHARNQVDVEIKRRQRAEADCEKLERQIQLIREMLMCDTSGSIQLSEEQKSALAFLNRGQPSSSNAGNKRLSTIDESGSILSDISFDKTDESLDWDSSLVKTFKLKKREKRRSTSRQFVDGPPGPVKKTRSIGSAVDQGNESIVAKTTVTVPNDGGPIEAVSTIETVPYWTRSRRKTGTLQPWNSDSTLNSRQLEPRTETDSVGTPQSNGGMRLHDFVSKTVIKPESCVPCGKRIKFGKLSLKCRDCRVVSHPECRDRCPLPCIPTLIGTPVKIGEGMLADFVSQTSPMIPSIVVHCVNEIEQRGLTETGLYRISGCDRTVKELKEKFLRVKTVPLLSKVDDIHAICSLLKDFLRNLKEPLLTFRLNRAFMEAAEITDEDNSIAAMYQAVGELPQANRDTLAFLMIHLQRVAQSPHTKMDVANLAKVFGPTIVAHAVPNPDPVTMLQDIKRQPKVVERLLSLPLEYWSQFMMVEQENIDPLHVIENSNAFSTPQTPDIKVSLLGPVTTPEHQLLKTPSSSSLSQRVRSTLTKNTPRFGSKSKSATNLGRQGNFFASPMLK", "experiment": "MgcRacGAP GTPase-activating activity inhibitors, confirmation, biochemical, ADP Hunter fluorescence, primary and confirmatory (AID 624330)", "assay_type": "functional"}, "[15]": {"biological_target": "Neurotensin receptor type 1 (Homo sapiens, UniProt P30989)", "sequence (P30989 whole entry)": "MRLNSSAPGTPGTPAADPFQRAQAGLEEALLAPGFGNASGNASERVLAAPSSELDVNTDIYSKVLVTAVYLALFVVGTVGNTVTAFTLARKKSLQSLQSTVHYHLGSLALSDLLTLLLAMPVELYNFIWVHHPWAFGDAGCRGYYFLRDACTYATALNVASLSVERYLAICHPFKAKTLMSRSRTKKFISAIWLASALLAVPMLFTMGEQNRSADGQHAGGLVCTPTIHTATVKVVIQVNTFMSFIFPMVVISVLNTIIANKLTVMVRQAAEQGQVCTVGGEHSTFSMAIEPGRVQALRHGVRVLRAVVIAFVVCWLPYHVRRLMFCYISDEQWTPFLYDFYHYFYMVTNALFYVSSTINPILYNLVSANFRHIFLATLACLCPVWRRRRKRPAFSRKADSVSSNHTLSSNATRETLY", "assay_type": "functional"}, "Melanocortin receptor 4": {"biological_target": "Melanocortin receptor 4 (Homo sapiens, UniProt P32245)", "sequence (P32245 whole entry)": "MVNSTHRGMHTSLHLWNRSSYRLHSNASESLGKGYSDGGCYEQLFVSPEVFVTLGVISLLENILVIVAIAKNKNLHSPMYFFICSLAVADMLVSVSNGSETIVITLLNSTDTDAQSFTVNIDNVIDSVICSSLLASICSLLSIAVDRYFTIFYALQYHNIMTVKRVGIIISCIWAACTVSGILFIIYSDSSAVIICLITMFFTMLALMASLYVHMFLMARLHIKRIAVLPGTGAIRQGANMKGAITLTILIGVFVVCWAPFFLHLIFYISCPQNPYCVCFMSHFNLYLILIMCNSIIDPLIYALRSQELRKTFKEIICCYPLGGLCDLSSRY", "experiment": "MC4R antagonist potency on cAMP, dose response, cell-based, TR-FRET, biased antagonists (AID 602298);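 further: antagonist potency against agonist-stimulated cAMP production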", "assay_type": "functional"}, "[16]": {"biological_target": "Heat shock protein HSP 90-alpha (Homo sapiens, UniProt P07900)", "assay_type": "functional, organism-based"}, "[17]": {"experiment": "Luminescence Cell-Based Dose Retest to Confirm Inhibitors of Cancer Stem Cells. [Related pubchem assays (depositor defined):AID2717, AID2721]", "assay_type": "functional", "conditions": "Homo sapiens"}},
  "note": "Activity calls are given as the source filed them.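 Wherever Absolute IC50 (XBP1) is given: confirmatory dose-response counter-screen serving a CHOP assay.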",
  "data": [
    {"smiles": "Cc1oc2c(C)c3oc(=O)c(CCC(=O)O)c(C)c3cc2c1-c1ccccc1", "values": [
      {"measurement": "IC50", "setting": "[1]", "result": "5.03 µM (active)"},
      {"measurement": "EC50", "setting": "[2]", "result": "3.67 µM (active)"},
      {"measurement": "IC50", "setting": "HEK293 [3]", "result": "> 20 µM (inactive)"},
      {"measurement": "IC50", "setting": "[4]", "result": "5.43 µM (active)"},
      {"measurement": "IC50", "setting": "HEK293 [5]", "result": "> 20 µM (inactive)"},
      {"measurement": "IC50", "setting": "HEK293 [6]", "result": "> 20 µM (inactive)"},
      {"measurement": "IC50", "setting": "HEK293 [7]", "result": "14.8 µM (inactive)"},
      {"measurement": "IC50", "setting": "HEK293 [8]", "result": "> 20 µM (inactive)"},
      {"measurement": "IC50", "setting": "[9]", "result": "> 66.6 µM (inactive)"},
      {"measurement": "IC50", "setting": "[10]", "result": "13.4 µM (active)"},
      {"measurement": "IC50", "setting": "Tumor necrosis factor", "result": "5.03 µM (active)"},
      {"measurement": "EC50", "setting": "HEK293 [11]", "result": "7.66 µM (active)"}
    ]},
    {"smiles": "CCOc1ccc(-c2[nH]nc(C)c2Oc2ccc(OC)cc2)c(O)c1", "values": [
      {"measurement": "Absolute IC50 (XBP1)", "setting": "X-box-binding protein 1", "result": 10, "unit": "µM"}
    ]},
    {"smiles": "CN(C)c1ccc(-n2cccc2/C=C/[N+](=O)[O-])cc1", "values": [
      {"measurement": "IC50", "setting": "[12]", "result": "> 64.6 µM (inactive)"},
      {"measurement": "AC50", "setting": "[13]", "result": "10.2 µM (active)"},
      {"measurement": "IC50", "setting": "[14]", "result": "43.2 µM (active)"},
      {"measurement": "EC50", "setting": "[15]", "result": "9.06 µM (active)"},
      {"measurement": "IC50", "setting": "Melanocortin receptor 4", "result": "12.1 µM (inactive)"},
      {"measurement": "AC50", "setting": "[16]", "result": "4.36 µM (active)"},
      {"measurement": "AC50", "setting": "[17]", "result": "2.93 µM (active)"}
    ]}
  ]
}
